{
  "source": "paper PMC11968506",
  "about": "“Toxicokinetics and analytical toxicology of the phenmetrazine-derived new psychoactive substance 3,4-methylenedioxyphenmetrazine studied by means of in vitro systems” (Archives of Toxicology, 2025)",
  "key": {"CYP2C19": {"biological_target": "CYP2C19 (Homo sapiens, UniProt P33261)", "sequence (P33261 whole entry)": "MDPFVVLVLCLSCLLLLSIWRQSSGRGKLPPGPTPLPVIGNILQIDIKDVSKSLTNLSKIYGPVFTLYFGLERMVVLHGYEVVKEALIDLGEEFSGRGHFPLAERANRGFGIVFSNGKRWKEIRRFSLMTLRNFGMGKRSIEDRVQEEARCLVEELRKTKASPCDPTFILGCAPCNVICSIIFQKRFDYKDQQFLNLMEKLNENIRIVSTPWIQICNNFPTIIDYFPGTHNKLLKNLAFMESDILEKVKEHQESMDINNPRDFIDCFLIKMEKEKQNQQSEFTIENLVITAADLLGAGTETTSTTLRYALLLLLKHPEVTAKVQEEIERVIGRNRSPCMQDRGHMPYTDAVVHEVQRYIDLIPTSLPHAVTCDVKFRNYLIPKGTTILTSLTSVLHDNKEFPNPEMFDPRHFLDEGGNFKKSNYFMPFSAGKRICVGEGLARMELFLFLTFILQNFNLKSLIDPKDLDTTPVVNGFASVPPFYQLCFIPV", "assay": "CYP inhibition cocktail assay in pHLM, CYP2C19 (omeprazole)", "settings": "inhibitor 20 µM, omeprazole 21 µM, pHLM 0.4 mg/mL, 15 min; control without inhibitor = 100%", "method": "(§1) A modified dual-cocktail based method (Dinger et al. [2014b]) was used. Substrate cocktail A consisted of 8.9 µM dextromethorphan (CYP2D6), 86 µM testosterone (CYP3A4), 3.5 µM diclofenac (CYP2C9), and 12 µM phenacetin (CYP1A2). Substrate cocktail B included 30 µM bupropion (CYP2B6), 2 µM amodiaquine (CYP2C8) and 21 µM omeprazole (CYP2C19). Substrate concentrations were near their respective Michaelis–Menten constant (Km) values (Dinger et al. [2014a]) and all concentrations are final. Enzyme inhibition was investigated using a positive control, a test group, a control group, an interference group, and a negative control. In the test group, specific inhibitors were replaced by MDPM (20 µM). Instead of inhibitors, phosphate buffer was used in the control group. Enzymes were replaced with phosphate buffer in the negative control group. The interference group was incubated like the control group, but the reaction was stopped with 20 µM MDPM in acetonitrile, also containing 2.5 µM trimipramine-d3. All groups were incubated with a NADPH-regenerating system, consisting of 5 mM isocitrate, 2 U/mL isocitrate dehydrogenase, 5 mM Mg^2+, and 1.2 mM NADP^+. Further, substrate cocktail A or B, 90 mM phosphate buffer (pH 7.4), and 200 U/mL superoxide dismutase were added to each group. […] All groups were preincubated for 10 min at 37 °C. Then, pHLM (0.4 mg microsomal protein/mL) was added to each group except the negative control. Incubations were done for 15 min at 37 °C. Therefore, 50 µL of acetonitrile (− 20 °C) containing 2.5 µM trimipramine-d3 as internal standard was added. Incubations were done in triplicates and organic solvent in the incubation mixture was below 1% (Chauret et al. [1998]). Afterwards the samples were vortexed and centrifuged for 2 min at 18,407×g. 70 µL of the supernatant were transferred to autosampler vials and 10 µL were injected onto the LC-HRMS/MS system. Enzyme inhibition was evaluated by metabolite formation. […] The following settings were used: unpaired; one-tailed; significance level, 0.05; confidence intervals, 99%."}, "[1]": {"assay": "In vitro metabolism by pooled human liver S9 fraction", "assay_type": "in vitro ADME", "settings": "MDPM 25 µM, pHLS9 2 mg/mL, 60 and 360 min; tentative identification", "method": "Incubations with pHLS9 were performed in accordance with previous publications and minor adjustments (Richter et al. [2017]). First, 25 μg/mL alamethicin (UGT reaction mix B), pHLS9 (2 mg microsomal protein/mL), 0.1 mM AcCoA, 2.3 mM acetylcarnitine, 8 U/mL carnitine acetyltransferase, 2.5 mM isocitrate, 0.8 U/mL isocitrate dehydrogenase, 100 U/mL superoxide dismutase, 0.6 mM NADP^+ and 2.5 mM Mg^2+ were preincubated for 10 min at 37 °C. Then, 2.5 mM UDP-glucuronic acid (UGT reaction mix A), 40 µM PAPS, 1.2 mM SAM, 1 mM DTT and 10 mM GSH were added. The reaction was started by adding the respective substrate MDPM, MDMA, or quetiapine (25 µM each). MDMA and quetiapine were incubated as positive controls. Negative control samples without enzymes and blank samples without substrates were incubated to identify not metabolically formed compounds and to confirm the absence of interfering compounds. […] Aliquots (50 µL) were transferred to a new reaction tube after 60 and 360 min. […] Samples were vortexed, stored at − 20 °C for 30 min, and centrifuged for 2 min at 18,407×g."}, "CYP2D6 [2]": {"biological_target": "T1, CYP2D6 (Homo sapiens, UniProt P10635)", "T1 sequence (P10635 whole entry, canonical isoform)": "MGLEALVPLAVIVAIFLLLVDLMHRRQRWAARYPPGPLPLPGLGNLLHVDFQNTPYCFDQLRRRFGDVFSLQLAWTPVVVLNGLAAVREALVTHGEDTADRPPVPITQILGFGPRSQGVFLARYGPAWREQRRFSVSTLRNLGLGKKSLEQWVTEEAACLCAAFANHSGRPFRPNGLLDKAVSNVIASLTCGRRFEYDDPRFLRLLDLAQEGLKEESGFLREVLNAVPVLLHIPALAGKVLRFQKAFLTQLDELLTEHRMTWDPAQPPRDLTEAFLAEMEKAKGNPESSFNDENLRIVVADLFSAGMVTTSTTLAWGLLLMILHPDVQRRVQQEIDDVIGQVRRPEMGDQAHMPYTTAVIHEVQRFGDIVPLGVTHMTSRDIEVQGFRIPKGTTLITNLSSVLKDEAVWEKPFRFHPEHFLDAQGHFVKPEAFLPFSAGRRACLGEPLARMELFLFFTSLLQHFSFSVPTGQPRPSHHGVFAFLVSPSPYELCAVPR", "assay": "Monooxygenase mapping (ten human cDNA-expressed CYP isoforms and FMO3)", "assay_type": "in vitro ADME", "parameters": "Then, pHLM (0.4 mg microsomal protein/mL) was added to each group except the negative control; tissue Discovery Life Sciences; host or cells: pooled human liver microsomes, 25 donors", "settings": "MDPM 25 µM, CYP 50 pmol/mL each or FMO3 0.25 mg protein/mL, 90 and 270 min", "method": "As described elsewhere (Wagmann et al. [2016]) and with minor modifications, MDPM (25 µM) was incubated with 2.5 mM isocitrate, 0.8 U/mL isocitrate dehydrogenase, 100 U/mL superoxide dismutase, 0.6 mM NADP^+, 2.5 mM Mg^2+ and CYP1A2, CYP2A6, CYP2B6, CYP2C8, CYP2C9, CYP2C19, CYP2D6, CYP2E1, CYP3A4, CYP3A5 (50 pmol/mL each), or FMO3 (0.25 mg protein/mL) for 90 and 270 min at 37 °C. For incubations with CYP2A6 or CYP2C9, phosphate buffer was replaced with 90 mM Tris buffer, according to the manufacturer’s guideline. Thirty µL aliquots were taken at both timepoints. The reaction was stopped using 20 µL acetonitrile (− 20 °C) with 2.5 µM trimipramine-d3 as an internal standard. All incubations were done in duplicates and concentrations are final. […] Negative control samples without enzymes and blank samples without substrate were incubated to identify not metabolically formed compounds and to confirm the absence of interfering compounds."}, "[3]": {"assay": "In vitro metabolism by pooled human liver microsomes", "assay_type": "in vitro ADME", "settings": "MDPM 25 µM, pHLM 1 mg/mL, 60 and 120 min; tentative identification", "method": "Incubations with pHLM were in accordance with previous publications and minor modifications (Richter et al. [2017]). First, 2.5 mM isocitrate, 0.8 U/mL isocitrate dehydrogenase, 100 U/mL superoxide dismutase, 0.6 mM NADP^+, 2.5 mM Mg^2+ and pHLM (1 mg microsomal protein/mL) were preincubated for 10 min at 37 °C. […] Substances were incubated for 60 and 120 min at 37 °C. All concentrations are final concentrations, and incubations were done in duplicates. 50 µL aliquots were transferred to a new reaction tube at both timepoints. The reaction was stopped by adding 30 µL acetonitrile (− 20 °C) with 2.5 µM trimipramine-d3 as an internal standard. Negative control samples without enzymes and blank samples without substrates were performed to identify not metabolically formed compounds and to confirm the absence of interfering compounds."}, "[4]": {"assay": "In vitro metabolism by HepaRG cells", "assay_type": "in vitro ADME, human", "settings": "MDPM 25 µM and 250 µM, tentative identification", "method": "Cell incubations were performed in a monolayer assay as previously described (Richter et al. [2019]) and in accordance with the manufacturer’s instructions. HepaRG cells were thawed and resuspended in 13.5 mL (~ 740,000 cells/mL) thaw and seed medium at 37 °C. Thaw and seed medium consisted of Williams E medium, 100 U/mL penicillin, 100 µg/mL streptomycin, GlutaMAX and HPRG670 supplement. Cells were handled under sterile conditions using a laminar flow bench class II (Thermo Scientific, TF, Schwerte, Germany). Aliquots of 100 µL cell suspension were seeded on collagen-coated 96-well plates (~ 74,000 cells/well). Evaporation was minimized by filling the outer wells with 100 µL thaw and seed medium. Cells were preincubated for 4 h in an incubator (Binder, Tuttlingen, Germany) at 37 °C, 95% air humidity, and 5% CO2. After preincubation, 50 µL of the thaw and seed medium was replaced with 50 µL MDPM solution (25 µM and 250 µM final concentrations), followed by an incubation for 24 h at 37 °C, 95% air humidity, and 5% CO2 atmosphere. MDMA or quetiapine (25 µM and 250 µM final concentrations, respectively) were incubated as positive controls. All incubations were done in triplicates. Each well contained 0.5% (v/v) DMSO. […]"}, "[5]": {"settings": "ref Alberto-Silva et al. 2024; cited from earlier work"}, "[6]": {"settings": "cited from earlier work"}, "CYP2D6 [7]": {"biological_target": "T1, CYP2D6", "assay": "CYP inhibition cocktail assay in pHLM, CYP2D6 (dextromethorphan)", "settings": "inhibitor 20 µM, dextromethorphan, pHLM; versus control without inhibitor", "method": "as §1"}, "CYP2B6": {"biological_target": "T2, CYP2B6 (Homo sapiens, UniProt P20813)", "T2 sequence (P20813 1-491)": "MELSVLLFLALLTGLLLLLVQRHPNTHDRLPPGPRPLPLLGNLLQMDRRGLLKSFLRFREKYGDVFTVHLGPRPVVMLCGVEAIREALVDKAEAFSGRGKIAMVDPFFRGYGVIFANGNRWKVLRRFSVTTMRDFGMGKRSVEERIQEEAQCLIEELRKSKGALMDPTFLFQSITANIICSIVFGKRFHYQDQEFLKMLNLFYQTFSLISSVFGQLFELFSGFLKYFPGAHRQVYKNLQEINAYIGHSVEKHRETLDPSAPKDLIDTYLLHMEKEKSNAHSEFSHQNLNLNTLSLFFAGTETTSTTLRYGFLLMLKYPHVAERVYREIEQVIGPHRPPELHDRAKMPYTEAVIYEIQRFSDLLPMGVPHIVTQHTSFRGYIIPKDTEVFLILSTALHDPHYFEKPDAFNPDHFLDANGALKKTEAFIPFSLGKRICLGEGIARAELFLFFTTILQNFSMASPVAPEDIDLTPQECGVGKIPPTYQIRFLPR", "assay": "CYP inhibition cocktail assay in pHLM, CYP2B6 (bupropion)", "settings": "inhibitor 20 µM, bupropion 30 µM, pHLM 0.4 mg/mL, 15 min; control without inhibitor = 100%", "method": "as §1"}, "CYP2C9": {"biological_target": "CYP2C9 (Homo sapiens, UniProt P11712)", "sequence (P11712 whole entry)": "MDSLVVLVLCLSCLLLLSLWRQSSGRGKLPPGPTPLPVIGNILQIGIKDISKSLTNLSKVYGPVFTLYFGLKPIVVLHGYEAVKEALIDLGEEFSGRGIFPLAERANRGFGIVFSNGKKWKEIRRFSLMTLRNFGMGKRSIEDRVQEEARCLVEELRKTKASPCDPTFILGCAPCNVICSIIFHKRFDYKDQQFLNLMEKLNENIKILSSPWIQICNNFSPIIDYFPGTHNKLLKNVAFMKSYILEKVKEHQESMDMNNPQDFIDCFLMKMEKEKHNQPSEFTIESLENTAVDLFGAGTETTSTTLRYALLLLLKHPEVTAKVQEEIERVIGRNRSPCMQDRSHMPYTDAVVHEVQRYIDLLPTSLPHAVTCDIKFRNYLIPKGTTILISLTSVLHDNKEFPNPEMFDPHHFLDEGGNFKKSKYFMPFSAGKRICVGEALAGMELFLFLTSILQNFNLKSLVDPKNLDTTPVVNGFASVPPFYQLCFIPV", "assay": "CYP inhibition cocktail assay in pHLM, CYP2C9 (diclofenac)", "settings": "inhibitor 20 µM, diclofenac 3.5 µM, pHLM 0.4 mg/mL, 15 min; control without inhibitor = 100%", "method": "as §1"}, "CYP2C8 [8]": {"biological_target": "T3, CYP2C8 (Homo sapiens, UniProt P10632)", "T3 sequence (P10632 1-490)": "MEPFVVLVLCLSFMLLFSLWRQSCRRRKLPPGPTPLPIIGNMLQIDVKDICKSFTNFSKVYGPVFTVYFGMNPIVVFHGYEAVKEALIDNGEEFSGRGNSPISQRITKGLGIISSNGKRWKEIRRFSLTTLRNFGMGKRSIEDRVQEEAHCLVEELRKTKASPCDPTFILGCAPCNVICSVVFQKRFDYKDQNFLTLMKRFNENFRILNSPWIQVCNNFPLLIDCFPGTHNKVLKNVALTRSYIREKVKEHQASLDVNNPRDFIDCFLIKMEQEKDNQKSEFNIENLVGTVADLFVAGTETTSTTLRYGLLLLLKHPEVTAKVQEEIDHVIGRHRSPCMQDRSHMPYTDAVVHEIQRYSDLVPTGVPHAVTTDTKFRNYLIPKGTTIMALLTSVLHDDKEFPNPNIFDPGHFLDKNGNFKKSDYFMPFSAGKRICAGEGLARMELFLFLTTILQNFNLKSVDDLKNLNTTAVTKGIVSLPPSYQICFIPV", "assay": "CYP inhibition cocktail assay in pHLM, CYP2C8 (amodiaquine)", "settings": "inhibitor 100 µM, amodiaquine 2 µM, pHLM 0.4 mg/mL, 15 min; control without inhibitor = 100%", "method": "as §1"}, "CYP2C8 [9]": {"test_system": "CYP2C8", "settings": "100 µM trimethoprim; ref Niemi et al. 2004; cited from earlier work"}},
  "note": "Read-outs that look alike come from different tables or passages of the source.",
  "data": [
    {"smiles": "OC(Cn1cncn1)(Cn1cncn1)c1ccc(F)cc1F", "note": "[Fluconazole, fluconazole, reference compound]", "values": [
      {"measurement": "CYP2C19 metabolite formation", "setting": "CYP2C19", "result": 48, "unit": "%"}
    ]},
    {"smiles": "CC1NCCOC1c1ccc(O)c(O)c1", "note": "(stereo not drawn) [M1, Demethylenyl-MDPM]", "values": [
      {"measurement": "metabolite detection in pHLS9 incubations", "setting": "[1]", "result": "could not be identified"},
      {"measurement": "isozymes forming the demethylenyl metabolite (O-demethylenation of MDPM)", "setting": "CYP2D6 [2]", "result": "only found in CYP2D6 incubations"},
      {"measurement": "metabolite detection in pHLM incubations", "setting": "[3]", "result": "found"},
      {"measurement": "metabolite detection in HepaRG incubations", "setting": "[4]", "result": "could not be identified"}
    ]},
    {"smiles": "COc1cc(C2OCCNC2C)ccc1O", "note": "(stereo not drawn) [M2]", "values": [
      {"measurement": "metabolite detection in pHLS9 incubations", "setting": "[1]", "result": "found"}
    ]},
    {"smiles": "CNC(C)Cc1ccc2c(c1)OCO2", "note": "(stereo not drawn) [MDMA, 3,4-methylenedioxymethamphetamine]", "values": [
      {"measurement": "in vitro half-life", "setting": "[5]", "result": "over 150 min"},
      {"measurement": "plasma protein binding (PPB)", "setting": "[6]; ref Wan Aasim et al. 2017", "result": "43–51%"}
    ]},
    {"smiles": "C=C[C@H]1C[N@@]2CC[C@H]1C[C@@H]2[C@@H](O)c1ccnc2ccc(OC)cc12", "note": "[Quinidine, quinidine, reference compound]", "values": [
      {"measurement": "decrease in CYP2D6 activity (inhibition)", "setting": "CYP2D6 [7]", "result": 99, "unit": "%"}
    ]},
    {"smiles": "CN[C@H]1CC[C@@H](c2ccc(Cl)c(Cl)c2)c2ccccc21", "note": "[Sertraline, sertraline, reference compound]", "values": [
      {"measurement": "CYP2B6 metabolite formation", "setting": "CYP2B6", "result": 24, "unit": "%"}
    ]},
    {"smiles": "Nc1ccc(S(=O)(=O)Nc2ccnn2-c2ccccc2)cc1", "note": "[Sulfaphenazole, sulfaphenazole, reference compound]", "values": [
      {"measurement": "CYP2C9 metabolite formation", "setting": "CYP2C9", "result": 9, "unit": "%"}
    ]},
    {"smiles": "COc1cc(Cc2cnc(N)nc2N)cc(OC)c1OC", "note": "[Trimethoprim, trimethoprim, reference compound]", "values": [
      {"measurement": "CYP2C8 metabolite formation", "setting": "CYP2C8 [8]", "result": 81, "unit": "%"},
      {"measurement": "maximum inhibition of CYP2C8 activity", "setting": "CYP2C8 [9]", "result": "≤ 40", "unit": "%"}
    ]},
    {"smiles": "CC(N)Cc1ccccc1", "note": "(stereo not drawn) [amphetamine]", "values": [
      {"measurement": "plasma protein binding (PPB)", "setting": "[6]; ref Franksson and Anggard 1970, Losacker et al. 2021", "result": "20–30%"}
    ]},
    {"smiles": "CC1NCCOC1c1ccccc1", "note": "(stereo not drawn) [phenmetrazine]", "values": [
      {"measurement": "plasma protein binding (PPB)", "setting": "[6]; ref Franksson and Anggard 1970", "result": 20, "unit": "%"}
    ]}
  ]
}
